Assay results reported in ChEMBL document CHEMBL3994588, “Importance of 5/6-aryl substitution on the pharmacological profile of 4'-((2-propyl-1H-benzo[d]imidazol-1-yl)methyl)-[1,1'-biphenyl]-2-carboxylic acid derived PPARγ agonists” (Eur J Med Chem, 2017).

Tests used:
[1] = biological target: T1, Peroxisome proliferator-activated receptor gamma (Homo sapiens) (UniProt P37231); assay: (§1) Transactivation of Gal4 fused human PPARgamma LBD expressed in African green monkey COS7 cells after 42 hrs by dual luciferase reporter gene assay; assay type: cell-based
T1 sequence (whole entry): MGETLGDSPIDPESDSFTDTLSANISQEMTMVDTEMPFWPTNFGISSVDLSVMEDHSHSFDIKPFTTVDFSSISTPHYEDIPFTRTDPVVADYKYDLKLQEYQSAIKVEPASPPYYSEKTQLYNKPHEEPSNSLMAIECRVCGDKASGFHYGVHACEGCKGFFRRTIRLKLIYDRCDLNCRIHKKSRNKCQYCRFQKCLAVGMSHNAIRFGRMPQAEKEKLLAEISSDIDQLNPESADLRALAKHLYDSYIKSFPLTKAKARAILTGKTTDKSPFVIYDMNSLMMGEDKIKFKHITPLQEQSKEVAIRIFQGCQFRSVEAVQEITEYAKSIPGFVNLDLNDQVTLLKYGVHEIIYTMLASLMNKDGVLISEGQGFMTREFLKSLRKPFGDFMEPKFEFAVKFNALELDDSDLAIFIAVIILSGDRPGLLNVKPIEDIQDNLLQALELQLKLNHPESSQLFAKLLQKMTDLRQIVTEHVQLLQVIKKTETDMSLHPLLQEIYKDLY

[2] = biological target: T2, Peroxisome proliferator-activated receptor gamma (Homo sapiens, UniProt P37231); assay: as §1; assay type: cell-based
T2 sequence (P37231 whole entry): T1 sequence (whole entry)

Row | Structure (SMILES) | Activity [1] | EC50 ([2]; read-out: EC50) [µM] | EC50 [2]
1 | CCCc1nc2ccc(-c3ccccc3Cl)cc2n1Cc1ccc(-c2ccccc2C(=O)O)cc1 | Dose-dependent effect | 1.39 | –
2 | CCCc1nc2ccc(-c3ccc(Cl)cc3)cc2n1Cc1ccc(-c2ccccc2C(=O)O)cc1 | Dose-dependent effect | 1.15 | –
3 | CCCc1nc2cc(-c3cccc(O)c3)ccc2n1Cc1ccc(-c2ccccc2C(=O)O)cc1 | Dose-dependent effect | 1.25 | –
4 | CCCc1nc2ccc(-c3cccc(OC)c3)cc2n1Cc1ccc(-c2ccccc2C(=O)O)cc1 | Dose-dependent effect | 1.35 | –
5 | CCCc1nc2ccc(-c3ccc(O)cc3)cc2n1Cc1ccc(-c2ccccc2C(=O)O)cc1 | Dose-dependent effect | 2.98 | –
6 | CCCc1nc2cc(-c3ccc(O)cc3)ccc2n1Cc1ccc(-c2ccccc2C(=O)O)cc1 | Dose-dependent effect | 1.01 | –
7 | CCCc1nc2c(C)cc(-c3nc4ccccc4n3C)cc2n1Cc1ccc(-c2ccccc2C(=O)O)cc1 | – | 4.97 | –
8 | CCCc1nc2ccccc2n1Cc1ccc(-c2ccccc2C(=O)O)cc1 | Dose-dependent effect | 6.44 | –
9 | CCCc1nc2cc(-c3cccc(Cl)c3)ccc2n1Cc1ccc(-c2ccccc2C(=O)O)cc1 | – | – | Not Active
10 | CCCc1nc2ccc(-c3cccc(O)c3)cc2n1Cc1ccc(-c2ccccc2C(=O)O)cc1 | Dose-dependent effect | 4.09 | –

More lines, in order of falling EC50 ([2]; read-out: EC50), values ahead:

Row | Activity [1] | EC50 ([2]; read-out: EC50) [µM] | EC50 [2] | Structure (SMILES)
11 | Dose-dependent effect | 1.01 | – | CCCc1nc2ccc(-c3ccc(OC)cc3)cc2n1Cc1ccc(-c2ccccc2C(=O)O)cc1
12 | Dose-dependent effect | 0.93 | – | CCCc1nc2cc(-c3ccccc3Cl)ccc2n1Cc1ccc(-c2ccccc2C(=O)O)cc1
13 | Dose-dependent effect | 0.77 | – | CCCc1nc2ccc(-c3cccc(Cl)c3)cc2n1Cc1ccc(-c2ccccc2C(=O)O)cc1
14 | Dose-dependent effect | 0.41 | – | CCCc1nc2cc(-c3ccc(OC)cc3)ccc2n1Cc1ccc(-c2ccccc2C(=O)O)cc1
15 | Dose-dependent effect | 0.29 | – | CCCc1nc2cc(-c3cccc(OC)c3)ccc2n1Cc1ccc(-c2ccccc2C(=O)O)cc1
16 | Dose-dependent effect | 0.19 | – | CCCc1nc2cc(-c3ccc(Cl)cc3)ccc2n1Cc1ccc(-c2ccccc2C(=O)O)cc1
